Results: ChEMBL document CHEMBL1201862, “PubChem BioAssay data set” (2004)
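Test compounds were applied to cells in 96-well plates for 48 hours at 5 doses. GI50 marks 50% less growth.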 Active and inactive are the calls of the source. Cut-off read from the data, not from the text of the source: active = GI50 up to about 1.1 µM and inactive = higher.

Experiments:
Test in all cases: growth of human tumour cells (NCI), 48 h
RPMI-8226 = system: RPMI-8226
SNB-75 = system: SNB-75
OVCAR-4 = system: OVCAR-4
Malme-3M = system: Malme-3M
SK-OV-3 = system: SK-OV-3
DMS-114 = system: DMS-114
NCI-H23 = system: NCI-H23
MOLT-4 = system: MOLT-4
NCI-H460 = system: NCI-H460
DLD-1 = system: DLD-1
A498 = system: A498
LXFL 529 = system: LXFL 529
SR = system: SR
IGROV-1 = system: IGROV-1
UO-31 = system: UO-31
HOP-62 = system: HOP-62
HCT-116 = system: HCT-116
RXF 631 = system: RXF 631
COLO 205 = system: COLO 205
K562 = system: K562
HOP-92 = system: HOP-92
M14 = system: M14
CCRF-CEM = system: CCRF-CEM
SK-MEL-28 = system: SK-MEL-28
HL-60 = system: HL-60
XF498 = system: XF498
DMS-273 = system: DMS-273
NCI-H522 = system: NCI-H522
CAKI-1 = system: CAKI-1
SF-539 = system: SF-539
UACC-62 = system: UACC-62
HCC 2998 = system: HCC 2998
SNB-78 = system: SNB-78
SK-MEL-2 = system: SK-MEL-2
786-0 = system: 786-0
NCI-H226 = system: NCI-H226
SN12C = system: SN12C
SF-268 = system: SF-268
M19-MEL = system: M19-MEL
HT-29 = system: HT-29
TK-10 = system: TK-10
OVCAR-3 = system: OVCAR-3
HOP-18 = system: HOP-18
OVCAR-5 = system: OVCAR-5
ACHN = system: ACHN
HCT-15 = system: HCT-15
U-251 = system: U-251
LOX IMVI = system: LOX IMVI
UACC-257 = system: UACC-257
RXF 393 = system: RXF 393
EKVX = system: EKVX
KM-20L2 = system: KM-20L2
A549 = system: A549
SK-MEL-5 = system: SK-MEL-5
SF-295 = system: SF-295
KM12 = system: KM12
SW-620 = system: SW-620
OVCAR-8 = system: OVCAR-8
SNB-19 = system: SNB-19

COc1cc([C@H]2Oc3c(c(O)cc4oc(-c5ccccc5)cc(=O)c34)O[C@@H]2CO)ccc1O
GI50 (RPMI-8226): 7.53 µM (inactive)
GI50 (SNB-75): 28.9 µM (inactive)
GI50 (OVCAR-4): 23.8 µM (inactive)
GI50 (Malme-3M): 24.2 µM (inactive)
GI50 (SK-OV-3): 84.9 µM (inactive)
GI50 (DMS-114): 20 µM (inactive)
GI50 (NCI-H23): 38.5 µM (inactive)
GI50 (MOLT-4): > 10 µM (inactive)
GI50 (NCI-H460): 5.14 µM (inactive)
GI50 (DLD-1): 16.6 µM (inactive)
GI50 (A498): 67 µM (inactive)
GI50 (LXFL 529): 24.3 µM (inactive)
GI50 (SR): 8.87 µM (inactive)
GI50 (IGROV-1): 51.8 µM (inactive)
GI50 (UO-31): 31.9 µM (inactive)
GI50 (HOP-62): > 100 µM (inactive)
GI50 (HCT-116): 21.5 µM (inactive)
GI50 (RXF 631): 23.8 µM (inactive)
GI50 (COLO 205): 31.8 µM (inactive)
GI50 (K562): 21.6 µM (inactive)
GI50 (HOP-92): 31.7 µM (inactive)
GI50 (M14): 17.5 µM (inactive)
GI50 (CCRF-CEM): 4.34 µM (inactive)
GI50 (SK-MEL-28): 45.8 µM (inactive)
GI50 (HL-60): 13.7 µM (inactive)
GI50 (XF498): 25.4 µM (inactive)
GI50 (DMS-273): 8.83 µM (inactive)
GI50 (NCI-H522): 19.1 µM (inactive)
GI50 (CAKI-1): 63.2 µM (inactive)
GI50 (SF-539): > 100 µM (inactive)
GI50 (UACC-62): 29.9 µM (inactive)
GI50 (HCC 2998): 25.6 µM (inactive)
GI50 (SNB-78): > 100 µM (inactive)
GI50 (SK-MEL-2): 22.8 µM (inactive)
GI50 (786-0): 21.9 µM (inactive)
GI50 (NCI-H226): 71.1 µM (inactive)
GI50 (SN12C): 35.9 µM (inactive)
GI50 (SF-268): 11.7 µM (inactive)
GI50 (M19-MEL): 24.7 µM (inactive)

[N-]=[N+]=C1C(=O)C2CC3CC1CC2C3 (stereo not given)
GI50 (RPMI-8226): > 100 µM (inactive)
GI50 (SNB-75): > 100 µM (inactive)
GI50 (OVCAR-4): > 100 µM (inactive)
GI50 (HT-29): > 100 µM (inactive)
GI50 (TK-10): > 100 µM (inactive)
GI50 (OVCAR-3): > 100 µM (inactive)
GI50 (Malme-3M): > 100 µM (inactive)
GI50 (SK-OV-3): > 100 µM (inactive)
GI50 (DMS-114): > 100 µM (inactive)
GI50 (NCI-H23): > 100 µM (inactive)
GI50 (MOLT-4): > 100 µM (inactive)
GI50 (NCI-H460): > 100 µM (inactive)
GI50 (DLD-1): > 100 µM (inactive)
GI50 (A498): > 100 µM (inactive)
GI50 (HOP-18): > 100 µM (inactive)
GI50 (LXFL 529): > 100 µM (inactive)
GI50 (SR): > 100 µM (inactive)
GI50 (IGROV-1): > 100 µM (inactive)
GI50 (UO-31): > 100 µM (inactive)
GI50 (HOP-62): > 100 µM (inactive)
GI50 (HCT-116): > 100 µM (inactive)
GI50 (RXF 631): > 100 µM (inactive)
GI50 (COLO 205): > 100 µM (inactive)
GI50 (K562): > 100 µM (inactive)
GI50 (OVCAR-5): > 100 µM (inactive)
GI50 (HOP-92): > 100 µM (inactive)
GI50 (M14): > 100 µM (inactive)
GI50 (CCRF-CEM): > 100 µM (inactive)
GI50 (ACHN): > 100 µM (inactive)
GI50 (SK-MEL-28): > 100 µM (inactive)
GI50 (HL-60): > 100 µM (inactive)
GI50 (HCT-15): > 100 µM
GI50 (U-251): > 100 µM (inactive)
GI50 (LOX IMVI): > 100 µM (inactive)
GI50 (UACC-257): > 100 µM (inactive)
GI50 (RXF 393): > 100 µM (inactive)
GI50 (DMS-273): > 100 µM (inactive)
GI50 (NCI-H522): > 100 µM (inactive)
GI50 (CAKI-1): > 100 µM (inactive)
GI50 (SF-539): > 100 µM (inactive)
GI50 (UACC-62): > 100 µM (inactive)
GI50 (HCC 2998): > 100 µM (inactive)
GI50 (SNB-78): > 100 µM (inactive)
GI50 (EKVX): > 100 µM (inactive)
GI50 (KM-20L2): > 100 µM (inactive)
GI50 (SK-MEL-2): > 100 µM (inactive)
GI50 (786-0): > 100 µM (inactive)
GI50 (NCI-H226): > 100 µM (inactive)
GI50 (A549): > 100 µM (inactive)
GI50 (SK-MEL-5): > 100 µM (inactive)
GI50 (SF-295): > 100 µM (inactive)
GI50 (SN12C): > 100 µM (inactive)
GI50 (SF-268): > 100 µM (inactive)
GI50 (KM12): > 100 µM (inactive)
GI50 (SW-620): 81.1 µM (inactive)
GI50 (OVCAR-8): > 100 µM (inactive)
GI50 (SNB-19): > 100 µM (inactive)
GI50 (M19-MEL): > 100 µM (inactive)

Cc1ccc(NC(=O)C(=O)C2C(=O)NC(=O)NC2=O)c(C)c1
GI50 (RPMI-8226): > 100 µM (inactive)
GI50 (SNB-75): > 100 µM (inactive)
GI50 (OVCAR-4): > 100 µM (inactive)
GI50 (HT-29): > 100 µM (inactive)
GI50 (TK-10): > 100 µM (inactive)
GI50 (OVCAR-3): > 100 µM (inactive)
GI50 (Malme-3M): > 100 µM (inactive)
GI50 (SK-OV-3): > 100 µM (inactive)
GI50 (DMS-114): > 100 µM (inactive)
GI50 (NCI-H23): > 100 µM (inactive)
GI50 (MOLT-4): > 100 µM (inactive)
GI50 (NCI-H460): > 100 µM (inactive)
GI50 (DLD-1): > 100 µM (inactive)
GI50 (A498): > 100 µM (inactive)
GI50 (HOP-18): > 100 µM (inactive)
GI50 (LXFL 529): > 100 µM (inactive)
GI50 (SR): > 100 µM (inactive)
GI50 (IGROV-1): > 100 µM (inactive)
GI50 (UO-31): > 100 µM (inactive)
GI50 (HOP-62): > 100 µM (inactive)
GI50 (HCT-116): > 100 µM (inactive)
GI50 (RXF 631): > 100 µM (inactive)
GI50 (COLO 205): 13.8 µM (inactive)
GI50 (K562): > 100 µM (inactive)
GI50 (OVCAR-5): > 100 µM (inactive)
GI50 (HOP-92): > 100 µM (inactive)
GI50 (M14): > 100 µM (inactive)
GI50 (CCRF-CEM): > 100 µM (inactive)
GI50 (ACHN): > 100 µM (inactive)
GI50 (SK-MEL-28): > 100 µM (inactive)
GI50 (HL-60): > 100 µM (inactive)
GI50 (HCT-15): > 100 µM
GI50 (U-251): > 100 µM (inactive)
GI50 (LOX IMVI): > 100 µM (inactive)
GI50 (UACC-257): > 100 µM (inactive)
GI50 (RXF 393): > 100 µM (inactive)
GI50 (DMS-273): > 100 µM (inactive)
GI50 (NCI-H522): > 100 µM (inactive)
GI50 (CAKI-1): > 100 µM (inactive)
GI50 (SF-539): > 100 µM (inactive)
GI50 (UACC-62): > 100 µM (inactive)
GI50 (HCC 2998): > 100 µM (inactive)
GI50 (SNB-78): > 100 µM (inactive)
GI50 (EKVX): > 100 µM (inactive)
GI50 (KM-20L2): > 100 µM (inactive)
GI50 (SK-MEL-2): > 100 µM (inactive)
GI50 (786-0): > 100 µM (inactive)
GI50 (NCI-H226): 17.5 µM (inactive)
GI50 (A549): > 100 µM (inactive)
GI50 (SK-MEL-5): > 100 µM (inactive)
GI50 (SF-295): > 100 µM (inactive)
GI50 (SN12C): 14.9 µM (inactive)
GI50 (SF-268): > 100 µM (inactive)
GI50 (KM12): > 100 µM (inactive)
GI50 (SW-620): > 100 µM (inactive)
GI50 (OVCAR-8): > 100 µM (inactive)
GI50 (SNB-19): > 100 µM (inactive)
GI50 (M19-MEL): > 100 µM (inactive)
